Like-named read-outs stand apart in the source and are kept apart here.
Columns and labels:
KM mice = experiment: animal or person; type: in vivo; details: for duration and recovery time compared with remimazolam / effective dose compared with remimazolam: mice, tail vein, in words
SD rats = experiment: animal or person; type: in vivo; details: for duration and recovery time compared with remimazolam / effective dose compared with remimazolam: rats, tail vein, in words
[1] = KM mice, single tail vein injection at 2×ED50, time from disappearance to recovery of righting reflex
[2] = KM mice, single tail vein injection at 2×ED50, time from recovery of righting reflex to free crawling
[3] = Mus musculus, KM mice (male, 18-22 g), injection via the tail vein, disappearance of righting reflex, read-out: ED50
[4] = Rattus norvegicus, SD rats (male, 220-300 g), injection via the tail vein, disappearance of righting reflex, read-out: ED50
[5] = SD rats, single tail vein injection at 2×ED50, time from disappearance to recovery of righting reflex
[6] = SD rats, single tail vein injection at 2×ED50, time from recovery of righting reflex to free crawling

CCOC(=O)OCOC(=O)CC[C@@H]1N=C(c2ccccn2)c2cc(Br)c(Br)cc2-n2c(C)cnc21 [Example 9]
2ED50 duration (KM mice; [1]): 5.48 min | 2ED50 recovery time (KM mice; [2]): 2.07 min | Quality of recovery (KM mice; KM mice, tail vein injection): ++++ (“++++” means 5-10 min) | ED50 (KM mice; [3]): 31.6 mg/kg | ED50 (SD rats; [4]): 5.6 mg/kg | 2ED50 duration (SD rats; [5]): 4.12 min | 2ED50 recovery time (SD rats; [6]): 2.57 min | Quality of recovery (SD rats; SD rats, tail vein injection): +++ (“+++” means 3-5 min)

CCOC(=O)OCOC(=O)CC[C@@H]1N=C(c2ccccn2)c2cc(Br)ccc2-n2c(C)cnc21 [Example 35]
2ED50 duration (KM mice; [1]): 5.25 min | 2ED50 recovery time (KM mice; [2]): 2.02 min | Quality of recovery (KM mice; KM mice, tail vein injection): +++ (“+++” means 3-5 min) | ED50 (KM mice; [3]): 25.2 mg/kg | ED50 (SD rats; [4]): 5.2 mg/kg | 2ED50 duration (SD rats; [5]): 3.20 min | 2ED50 recovery time (SD rats; [6]): 2.52 min | Quality of recovery (SD rats; SD rats, tail vein injection): ++ (“++” means 1-3 min)

COC(=O)C(C)OC(=O)CC[C@@H]1N=C(c2ccccn2)c2cc(Br)ccc2-n2c(C)cnc21 (stereo partly drawn) [Example 60]
2ED50 duration (KM mice; [1]): 2.46 min | 2ED50 recovery time (KM mice; [2]): 1.47 min | Quality of recovery (KM mice; KM mice, tail vein injection): ++ (“++” means 1-3 min) | ED50 (KM mice; [3]): 22.5 mg/kg | ED50 (SD rats; [4]): 3.5 mg/kg | 2ED50 duration (SD rats; [5]): 2.12 min | 2ED50 recovery time (SD rats; [6]): 2.14 min | Quality of recovery (SD rats; SD rats, tail vein injection): +++ (“+++” means 3-5 min)

COC(=O)C(CC(F)C(C)(C)OC(=O)CC[C@@H]1N=C(c2ccccn2)c2cc(Br)c(OC)cc2-n2c(C)cnc21)OC (stereo partly drawn) [Example 67, Methyl 5-((3-((4S)-8-bromo-9-methoxy-1-methyl-6-(pyridine-2-yl)-4H-benzo [f]imidazo[1,2-a][1,4]diazapin-4-yl)propionyl)oxy)-4-fluoro-2-methoxy-5-hexanoate adipate]
2ED50 duration (KM mice; [1]): 2.58 min | 2ED50 recovery time (KM mice; [2]): 2.38 min | Quality of recovery (KM mice; KM mice, tail vein injection): ++ (“++” means 1-3 min) | ED50 (KM mice; [3]): 31.7 mg/kg | ED50 (SD rats; [4]): 6.9 mg/kg | 2ED50 duration (SD rats; [5]): 3.18 min | 2ED50 recovery time (SD rats; [6]): 3.01 min | Quality of recovery (SD rats; SD rats, tail vein injection): +++ (“+++” means 3-5 min)

COC(=O)OC(C)OC(=O)CC[C@@H]1N=C(c2ccccn2)c2cc(Br)ccc2-n2c(C)cnc21 (stereo partly drawn) [Example 53]
2ED50 duration (KM mice; [1]): 3.61 min | 2ED50 recovery time (KM mice; [2]): 2.41 min | ED50 (KM mice; [3]): 25.7 mg/kg | duration and recovery time compared with remimazolam (KM mice): significantly shorter | effective dose compared with remimazolam (KM mice): significantly lower | ED50 (SD rats; [4]): 6 mg/kg | 2ED50 duration (SD rats; [5]): 3.18 min | 2ED50 recovery time (SD rats; [6]): 2.47 min | Quality of recovery (SD rats; SD rats, tail vein injection): ++ (“++” means 1-3 min) | duration and recovery time compared with remimazolam (SD rats): significantly shorter | effective dose compared with remimazolam (SD rats): significantly lower

CCOC(=O)COC(=O)CC[C@@H]1N=C(c2ccccn2)c2cc(Cl)ccc2-n2c(C)cnc21 [Example 38]
ED50 (KM mice; KM mice (male, 18-22 g), injection via the tail vein, disappearance of righting reflex): 25 mg/kg | 2ED50 duration (KM mice; [1]): 3.25 min | 2ED50 recovery time (KM mice; [2]): 1.25 min | Quality of recovery (KM mice; KM mice, tail vein injection): ++ (“++” means 1-3 min) | ED50 (SD rats; SD rats (male, 220-300 g), injection via the tail vein, disappearance of righting reflex): 6.5 mg/kg | 2ED50 duration (SD rats; [5]): 4.05 min | 2ED50 recovery time (SD rats; [6]): 2.55 min | Quality of recovery (SD rats; SD rats, tail vein injection): ++++ (“++++” means 5-10 min)

CCC(CC)OC(=O)OC(OC(=O)CC[C@@H]1N=C(c2ccccn2)c2cc(Cl)c(OC(F)(F)F)cc2-n2c(C)cnc21)C1CC(F)C(CC)C1 (stereo partly drawn) [Example 68, (3-Ethyl-4-fluorocyclopentyl) (((pentanyl-3-yloxy)carbonyl)oxy)methyl 3-((4S)-8-chloro-1-methyl-6-(pyridine-2-yl)-9-(trifluoromethoxy)-4H-benzo[f]imidazo[1,2-a][1,4]diazapin-4-yl) propionate L-aspartate]
2ED50 duration (KM mice; [1]): 3.09 min | ED50 (KM mice; [3]): 28.9 mg/kg | ED50 (SD rats; [4]): 5.9 mg/kg | 2ED50 duration (SD rats; [5]): 4.28 min

CCOC(=O)C1(OC(=O)CC[C@@H]2N=C(c3ccccn3)c3cc(Cl)c(Cl)cc3-n3c(C)cnc32)CC1 [Example 69, Ethyl 1-((3-((4S)-8,9-dichloro-1-methyl-6-(pyridine-2-yl)-4H-benzo[f]imidazo[1,2-a][1,4]diaza-4-yl)propionyl)oxy) cyclopropane-1-carboxylate benzoic acid]
ED50 (KM mice; Mus musculus): 23.8 mg/kg | 2ED50 duration (KM mice; mouse, in vivo): 3.45 min | 2ED50 recovery time (KM mice; mouse, in vivo): 2.38 min | Quality of recovery (KM mice; mouse, in vivo): ++++ (key: “+” means <1 mm; “++” means 1-3 min; “+++” means 3-5 min; “++++” means 5-10 min; “+++++” means >10 mm) | ED50 (SD rats; Rattus norvegicus): 6.1 mg/kg | 2ED50 duration (SD rats; rat, in vivo): 3.16 min | 2ED50 recovery time (SD rats; rat, in vivo): 2.48 min | Quality of recovery (SD rats; rat, in vivo): ++ (key: “+” means <1 mm; “++” means 1-3 min; “+++” means 3-5 min; “++++” means 5-10 min; “+++++” means >10 mm)

Cc1cnc2n1-c1cc(Br)c(Br)cc1C(c1ccccn1)=N[C@H]2CCC(=O)OC1(C(=O)OOC2CC(Cl)C2)CC1 (stereo partly drawn) [Example 64]
2ED50 duration (KM mice; [1]): 3.09 min | 2ED50 recovery time (KM mice; [2]): 2.12 min | Quality of recovery (KM mice; KM mice, tail vein injection): +++ (“+++” means 3-5 min) | ED50 (KM mice; [3]): 24.1 mg/kg | ED50 (SD rats; [4]): 2.7 mg/kg | 2ED50 duration (SD rats; [5]): 3.15 min | 2ED50 recovery time (SD rats; [6]): 2.18 min | Quality of recovery (SD rats; SD rats, tail vein injection): ++ (“++” means 1-3 min)

CCC(CC)OC(=O)OCOC(=O)CC[C@@H]1N=C(c2ccccn2)c2cc(Br)c(Br)cc2-n2c(C)cnc21 [Example 12]
2ED50 duration (KM mice; [1]): 5.32 min | 2ED50 recovery time (KM mice; [2]): 2.04 min | Quality of recovery (KM mice; KM mice, tail vein injection): +++ (“+++” means 3-5 min) | ED50 (KM mice; [3]): 31.3 mg/kg | ED50 (SD rats; [4]): 5.7 mg/kg | 2ED50 duration (SD rats; [5]): 5.24 min | 2ED50 recovery time (SD rats; [6]): 2.04 min | Quality of recovery (SD rats; SD rats, tail vein injection): ++ (“++” means 1-3 min)

Cc1cnc2n1-c1ccc(Br)cc1C(c1ccccn1)=N[C@H]2CCC(=O)OCOC(=O)OC(C)C(C)C (stereo partly drawn) [Example 51]
2ED50 duration (KM mice; [1]): >10 min | 2ED50 recovery time (KM mice; [2]): 2.39 min | Quality of recovery (KM mice; KM mice, tail vein injection): +++ (“+++” means 3-5 min) | ED50 (KM mice; [3]): 27.8 mg/kg | ED50 (SD rats; [4]): 6.5 mg/kg | 2ED50 duration (SD rats; [5]): 3.09 min | 2ED50 recovery time (SD rats; [6]): 2.32 min | Quality of recovery (SD rats; SD rats, tail vein injection): +++ (“+++” means 3-5 min)

CCOC(=O)COC(=O)CC[C@@H]1N=C(c2ccccn2)c2cc(Cl)c(OC(F)(F)F)cc2-n2c(C)cnc21 [Example 28]
2ED50 duration (KM mice; [1]): 0.52 min | 2ED50 recovery time (KM mice; [2]): 0.58 min | ED50 (KM mice; [3]): 9.5 mg/kg | duration and recovery time compared with remimazolam (KM mice): significantly shorter | effective dose compared with remimazolam (KM mice): significantly lower | ED50 (SD rats; [4]): 4.5 mg/kg | 2ED50 duration (SD rats; [5]): 0.58 min | 2ED50 recovery time (SD rats; [6]): 0.33 min | Quality of recovery (SD rats; SD rats, tail vein injection): + (“+” means <1 min) | duration and recovery time compared with remimazolam (SD rats): significantly shorter | effective dose compared with remimazolam (SD rats): significantly lower

Cc1cnc2n1-c1ccc(Br)cc1C(c1ccccn1)=N[C@H]2CCC(=O)OC(C)OC(=O)OC(C)C (stereo partly drawn) [Example 55]
2ED50 duration (KM mice; [1]): 4.65 min | 2ED50 recovery time (KM mice; [2]): 1.29 min | ED50 (KM mice; [3]): 28.1 mg/kg | duration and recovery time compared with remimazolam (KM mice): significantly shorter | effective dose compared with remimazolam (KM mice): significantly lower | ED50 (SD rats; [4]): 5.2 mg/kg | 2ED50 duration (SD rats; [5]): 3.28 min | 2ED50 recovery time (SD rats; [6]): 2.51 min | Quality of recovery (SD rats; SD rats, tail vein injection): + (“+” means <1 min) | duration and recovery time compared with remimazolam (SD rats): significantly shorter | effective dose compared with remimazolam (SD rats): significantly lower

COC(=O)C(C)(C)OC(=O)CC[C@@H]1N=C(c2ccccn2)c2cc(Br)ccc2-n2c(C)cnc21 [Example 62, Methyl 2-((3-((4S)-8-bromo-1-methyl-6-(pyridine-2-yl)-4H-benzo[f]imidazo [1,2-a][1,4]diaza-4-yl)propionyl)oxy)-2-methylpropionate]
2ED50 duration (KM mice; [1]): 3.23 min | 2ED50 recovery time (KM mice; [2]): 1.27 min | Quality of recovery (KM mice; KM mice, tail vein injection): +++ (“+++” means 3-5 min) | ED50 (KM mice; [3]): 13.5 mg/kg | ED50 (SD rats; [4]): 1.3 mg/kg | 2ED50 duration (SD rats; [5]): 1.08 min | 2ED50 recovery time (SD rats; [6]): 2.14 min | Quality of recovery (SD rats; SD rats, tail vein injection): +++ (“+++” means 3-5 min)
